# Paper PMC7031302, “Design and synthesis of new energy restriction mimetic agents: Potent anti-tumor activities of hybrid motifs of aminothiazoles and coumarins” (Scientific Reports, 2020)
# Where two headings read alike, the source gives them in different places.
# Assays:
# Format in all cases: cell-based, Human
# [1] = test system: colorectal cancer cell lines, HCT116 and HT-29; experiment: MTT cell viability, colorectal cancer cell lines (summary statements); details: for anticancer activities in initial screening, in words: HT-29 and HCT116 cancer cell lines
# Experimental: (§1) The potential cytotoxicity of 24 candidate compounds was initially evaluated at a single concentration level (5 μM). Then a full dose-response curve was plotted for each compound against different colorectal cancer cell lines (HCT116 and HT-29) by MTT assay after 72 h treatments. 4-hydroxycoumarin, OSU-CG5, and OSU-CG12 were used as positive controls. […] Compounds 9b, 9c, 9f, 9i, 11b, and 11c were selected for further studies to determine the full dose-response survival curves using different concentrations (0.1–20 µM) against CRC cell lines and normal fibroblast cell line (F180) at different time points (Fig. 2A–2F and supplementary material Page S63 and S64).
# (§2) Human colorectal carcinoma cell lines (HCT116) and (HT-29) were obtained from the European Collection of Cell Cultures (ECACC, UK). The cell lines were cultured in Roswell Park Memorial Institute medium (RPMI-1640, Sigma-Aldrich-St. Louis, MO, USA) supplemented with 10% fetal bovine serum (Sigma-Aldrich-St. Louis, MO, USA) and 1% penicillin/streptomycin (Sigma-Aldrich- Louis, MO, USA). F180 cell line (Human Normal Fibroblast), was kindly given by professor Ekkehard Dikomey (University Cancer Center, Hamburg University, Hamburg, Germany) and were cultured in Dulbecco’s Modified Eagle’s medium (DMEM, Sigma-Aldrich-St. Louis, MO, USA) supplemented with 10% fetal bovine serum (Sigma-Aldrich-St. Louis, MO, USA) and 1% penicillin/streptomycin (Sigma-Aldrich- Louis, MO, USA). All cell incubations were done at 37 °C in a humidified atmosphere of 5% CO2.
# (§3) Cell viability was assessed using, 3-(4,5-dimethylthiazol-2-yl)-2,5-diphenyltetrazolium bromide (MTT) assay as previously described. In summary, cancer cell lines or F180 were seeded in complete medium at the density of 3 × 10^3/well and 5 × 10^3/well respectively in 96 well flat-bottom plates. After 24 h, cells were incubated with the candidate compounds at the indicated concentration for (24, 48 or 72 h). DMSO was used as vehicle control and 4-Hydroxycoumarin was purchased from (Sigma-Aldrich, St. Louis, MO, USA) and Cisplatin from Hospira UK Ltd. At the end of treatment, the media were aspirated from each well and incubated with 200 µL of MTT tetrazolium dye (Sigma-Aldrich, St. Louis, MO, USA) at a final concentration of 0.5 mg/ml for 2 h at 37 °C. The reduced MTT crystals were solubilized in 200 µl/well of DMSO and the absorbance was measured at 570 nm using a microplate reader (Thermo-Scientific, Vantaa, Finland).
# [2] = test system: Caspase 3/7 activities in HT-29 cells; experiment: Caspase 3/7 activity assay, HT-29; details: HT-29, 72 h
# Experimental: (§4) Based on this, the energy restriction mediated anticancer activity of the new coumarin tagged aminothiazole derivatives was investigated. The expression levels of PARP, p-Akt, Akt, p-AMPK, AMPK, β-TrCP, LC3A/B-I, LC3A/B-II, caspase-3, cyclin D1, and Bcl-2 proteins were determined by Western blot analysis after 72 h treatment of HT-29 and HCT116 at different concentrations based on the IC50 values of each compound (Fig. 3A,B). […] Moreover, the treatment with 9b and 9f induced caspase 3/7 activation, which was detected by caspase 3/7 activity assay and confirmed by Western blot. The activation of caspases was significant in 9b in both cell lines and significant with 9f in HCT116 cells only and minimal in HT-29 cells (Fig. 3C,D). On the other hand, both 9b and 9f induced dose-dependent proteolytic processing of PARP. […] Besides, the protein expression level of the anti-apoptotic protein, Bcl-2, was reduced in HCT116 upon treatment with both compounds.
# Caspase-3/7 activities in HT-29 and HCT116 cells treated with candidate compounds were measured using Caspase-Glo 3/7 assay kit (Promega, Madison, WI, USA) following the manufacturer’s instructions. […] 50 µL of lysate and 50 µL of caspase substrate were added to a white opaque 96-well plate, and the luminescence was measured by Varioskan Flash multimode reader (Thermo-Scientific, Vantaa, Finland)
# HT-29 [3] = experiment: MTT cell viability, HT-29; details: 72 h, MTT assay, mean ± SD (n = 6), read-out: half-maximal inhibitory concentration (IC50) HT-29
# Experimental: as §1, §2, §3
# HT-29 [4] = experiment: Western blot analysis, HT-29; details: for expression of LC3A-II and LC3B-II: HT-29 (CRC cell lines); for expression of LC3A-II and LC3B-II / p-mTOR and p-p70S6K levels: 72 h; for AMPK activation through phosphorylation / Akt phosphorylation / PARP cleavage: HT-29, 72 h
# Experimental: as §4
# (§5) Following 72 h of treatment, cells were lysed and the extracted proteins were quantified using DC protein assay kit (Bio-Rad, Hercules, CA, USA) following the manufacturer’s instructions. Proteins were resolved on 8% or 12% SDS-poly-acrylamide gels, then transferred onto a nitrocellulose membrane using a semi-dry transfer cell. The membranes were blocked in TBS-T containing 5% non-fat milk for 1 h and incubated overnight at 4 °C overnight with indicated primary antibodies (Cell Signaling Technologies, Beverly, MA, USA) and then incubated with goat anti-mouse or anti-rabbit secondary antibody (Cell Signaling Technologies, Beverly, MA, USA) for 1 h at room temperature. Detection was done using chemiluminescence substrate (Bio-Rad, Hercules, CA, USA). β-actin (Cell Signaling Technologies, Beverly, MA, USA) was used as a loading control.
# (§6) The blots were captured with ChemiDoc Imaging System (Bio-Rad, Hercules, CA, USA) and bands were visualized with the Image Lab v5.2.1 software (Bio-Rad, Hercules, CA, USA).
# HCT116 = experiment: Western blot analysis, HCT116; details: for expression of LC3A-II and LC3B-II: HCT116 (CRC cell lines)
# Experimental: as §4, §5, §6
# [5] = HCT116, higher concentrations, except at doses 1 and 2 µM where induced p-mTOR was observed
"IC50 ([1]; both cell lines, summary statement) [nM]",IC50 (HT-29 [3]) [nM],"IC50 (HT-29 [3]; Homo sapiens, HT-29, 72 h) [nM]",SMILES,"anticancer activities in initial screening, in words [1]",activation of caspases (caspase 3/7) [2],expression of LC3A-II and LC3B-II (HT-29 [4]),"p-mTOR and p-p70S6K levels (HT-29 [4]; HT-29, 0.5 µM)",AMPK activation through phosphorylation (HT-29 [4]),Akt phosphorylation (HT-29 [4]),PARP cleavage (HT-29 [4]),"p-mTOR and p-p70S6K levels (HT-29 [4]; HT-29, higher concentrations)","expression of LC3A-II and LC3B-II (HCT116; 72 h, Western blot)","p-mTOR and p-p70S6K levels (HCT116; HCT116, 0.5 µM, 72 h, Western blot)","AMPK activation through phosphorylation (HCT116; HCT116, 72 h, Western blot)","PARP cleavage (HCT116; HCT116, 72 h, Western blot)","expression of β-TrCP and cyclin D (HCT116; HCT116, 72 h, Western blot)","protein expression level of Bcl-2 (HCT116; HCT116, 72 h, Western blot)",p-mTOR and p-p70S6K levels (HCT116; [5]),"Akt phosphorylation (HCT116; HCT116, high concentrations, 72 h, Western blot)"
< 600,380 ± 44,530,"Cc1cc(=O)oc2cc(Nc3nc(-c4ccc(Br)cc4)cs3)ccc12 [Compound 9b, 7-(4-(4-Bromophenyl)thiazol-2-ylamino)-4-methyl-2H-chromen-2-one]",significant anticancer activities,significant,induced the expression of LC3A-II and LC3B-II,initial increase,enhancement of AMPK activation,inhibition of Akt phosphorylation,induced PARP cleavage,decrease,induced the expression of LC3A-II and LC3B-II,initial increase,enhancement of AMPK activation,induced PARP cleavage,dose-dependent downregulation,reduced,decrease,
,3960 ± 506,2560,"Cc1cc(=O)oc2cc(Nc3nc(-c4cccc([N+](=O)[O-])c4)cs3)ccc12 [Compound 9f, 4-Methyl-7-(4-(3-Nitrophenyl)thiazol-2-ylamino)-2H-chromen-2-one]",significant anticancer activities,minimal,induced the expression of LC3A-II and LC3B-II,,enhancement of AMPK activation,inhibition of Akt phosphorylation,PARP cleavage only in HT-29 cells at the highest tested dose,decrease,induced the expression of LC3A-II and LC3B-II,,enhancement of AMPK activation,,,reduced,decrease,induced Akt phosphorylation
